Assay results published in patent US12241902B2, “Probes for detection of copper” (The Regents of the University of California, priority 2019, dated 2025).

What was measured:
[1] = test system: labile Cu(I) pools in HeLa cells; assay: Ratiometric confocal fluorescence imaging of labile Cu(I) in HeLa cells under redox stress; type: cell-based, Human; details: FCP-1 5 μM
Experimental: Confocal fluorescence microscopy images of HeLa cells pretreated with (A) solvent control, CuCl2 (200 or 300 μM), or BCS (100 μM) in complete medium for 18 h, or (B) solvent control, ascorbate (1 mM), or BSO (1 mM) in complete medium for 4 h. The cells were then washed with PBS, incubated with FCP-1 (5 μM) in DPBS for 45 min and imaged with λex=458 nm. The bar charts show average cellular ratiometric FCP-1 emission, Fgreen/Forange, determined from experiments performed in triplicate. (C) Total cellular ^63Cu levels were determined by ICP-MS experiments (with normalization of different cell numbers by total cellular ^31P level). […]
Confocal fluorescence microscopy imaging. For confocal fluorescence imaging experiments of HEK293T, MEF Ctr1^+/+ and Ctr1^−/− and HeLa cells, the cells were plated on 8-well Lab Tek borosilicate chambered coverglass slides (Nunc), and allowed to grow to ca. 60% confluency before performing the cell imaging experiments. […] For quantification, a threshold value was set as background and the average intensity of the whole image was measured by ImageJ. […]
In view of the oxidation state-specificity of FCP-1 toward Cu(I), the impact of cellular redox status on labile Cu(I) pools was examined First, the ability of FCP-1 to detect changes in labile Cu(I) levels in HeLa cells with CuCl2 and BCS treatments was evaluated (FIG. 16A). […]

[2] = Ratiometric fluorescence response (F526/F576) to Cu(I) in aqueous buffer
Experimental: (§1) UV-vis absorption and emission measurements. FCP-1 stock solution in DMSO (5 mM) was prepared, aliquoted and stored at […]. For each spectroscopic measurement, a fresh aliquot was diluted to 500 μM by DMSO and further diluted with PBS containing 2 mM GSH/PEG-400 mixture (3:2, v/v) to prepare the sensing solution with 5 μM of FCP-1. The sensing solution was pre-incubated in a water bath at 37° C., and then [Cu(CH3CN)](PF6) in MeCN or other metal ions in H2O was added. The solution mixture was kept at 37° C. and taken out for UV-vis absorption or emission spectroscopic measurements in quartz cuvette at predetermined time intervals. Emission spectra were corrected using coumarin 153 as secondary emission standard (4). Photoluminescence quantum yield (PLQY) was determined using fluorescein in 0.1 M NaOH solution (0.95; λex=496 nm). FRET efficiency from the fluorescein moiety to rhodamine moiety of FCP-1 was estimated by [1−(PLQY of FCP-1/PLQY of FL-TPA)].
The ratiometric fluorescence change of FCP-1 at 526 and 576 nm (F526/F576) was rapid and reached saturation after ca. 30 min in the presence of a two-fold excess of Cu(I) (10 μM).

[3] = Metal ion selectivity of the ratiometric fluorescence change
Experimental: (A) Changes in corrected emission spectra of FCP-1 (5 μM) in aqueous buffer solution. […] (B) Corrected emission spectra of FCP-1 measured at various concentrations. […] (D) Changes in F526/F576 ratio of FCP-1 (5 μM) towards various biologically relevant metal ions, as well as cobalt(II)-containing vitamin B12. Black bars represent the ratiometric emission response observed upon addition of competing metal ions (1 mM for Na^+, K^+, Mg^2+ and Ca^2+, and 10 μM for all the other d-block metal ions as well vitamin B12) after 15 min. Red bars represent the ratiometric emission response upon subsequent addition of 10 μM of Cu(I) after 15 min. (E) Emission spectra and (F) F526/F576 emission ratio of FCP-1 (5 μM) with addition of Cu(II) (10 μM), Cu(II) (10 μM)+GSH (2 mM), or Cu(I) (10 μM)+GSH (2 mM) after 15 min. All spectra were acquired in aqueous buffer (PBS with 2 mM GSH and 40 vol % PEG-400) with λex=458 nm.
as §1
This oxidation state-specificity is important for the applications of FCP-1 in imaging dynamic changes in intracellular labile Cu(I) pools under redox stress and oncogenic transformation.

[4] = FCP-1 5 μM, Cu(I) 10 μM, over time, λex 458 nm

SMILES: CC[N+](CC)=c1ccc2c(-c3ccccc3C(=O)O)c3ccc(N4CCN(Cc5cccc(CN(Cc6ccccn6)Cc6cccc(COc7ccc8c(-c9ccccc9C(=O)OC)c9ccc(=O)cc-9oc8c7)n6)n5)CC4)cc3oc-2c1 [FCP-1]
- Fgreen/Forange ratio in BSO-treated cells compared to control ([1]; BSO 1 mM 4 h): higher
- Fgreen/Forange ratio in ascorbate-treated cells compared to control ([1]; ascorbate 1 mM 4 h): statistically significant increase
- F526/F576 ratio with Cu(I) at different GSH concentrations ([2]; FCP-1 5 μM, Cu(I) 10 μM, 15 min, PBS with 40 vol % PEG-400): higher F526/F576 ratios at lower GSH concentrations
- fluorescein emission at 526 nm upon addition of Cu(I) [2, 4]: increase in fluorescein emission at 526 nm
- rhodamine fluorescence at 576 nm upon addition of Cu(I) [2, 4]: drop in rhodamine fluorescence at 576 nm
- total fluorescence at higher probe concentrations ([2]; aqueous buffer, λex 458 nm (FIG. 8)): less fluorescent at higher concentrations
- time to saturation of ratiometric fluorescence change F526/F576 ([2]; two-fold excess of Cu(I) (10 μM)): ca. 30 min
- change in ratiometric signal with cobalamin (vitamin B12) ([3]; 10 μM cobalamin): no significant changes in ratiometric signal
- selectivity of ratiometric fluorescence change ([3]; 1 mM Na+, K+, Mg2+, Ca2+, 10 μM d-block metal ions, 15 min): selective toward Cu(I) over other biologically relevant metal ions
- change of fluorescence with free Co(II) ([3]; Co(II) 10 μM): altered FCP-1 fluorescence modestly
- detection of Cu(I) in competitive experiments ([3]; solutions containing other biologically relevant metal ions, then 10 μM Cu(I)): ability of FCP-1 to detect Cu(I)
